Experimental data as given in patent US20210349099A1, “CANCER BIOMARKERS AND METHODS OF USE THEREOF” (X4 Pharmaceuticals, Inc., priority 2017, published 2021).

Test system: melanoma tumor microenvironment (TME)
Assay: Multiplex immunofluorescence (mIF) immunophenotyping of melanoma biopsies
Assay type: in vivo, human
Conditions: melanoma patient #5
Experimental: (§1) Formalin-fixed paraffin-embedded (FFPE) tissue sections were baked for 1 hour at 60° C. The slides were dewaxed and stained on a Leica BOND Rx stainer (Leica, Buffalo Grove, Ill.) using Leica Bond reagents for dewaxing (Dewax Solution), antigen retrieval and antibody stripping (Epitope Retrieval Solution 2), and rinsing after each step (Bond Wash Solution). A high stringency wash was performed after the secondary and tertiary applications using high-salt TBST solution (0.05 M Tris, 0.3M NaCl, and 0.1% Tween-20, pH 7.2-7.6). OPAL Polymer HRP Mouse plus Rabbit (PerkinElmer, Hopkington, Mass.) was used for all secondary applications.
Antigen retrieval and antibody stripping steps were performed at 100° C. with all other steps at ambient temperature. Endogenous peroxidase was blocked with 3% H2O2 for 8 minutes followed by protein blocking with TCT buffer (0.05 M Tris, 0.15 M NaCl, 0.25% Casein, 0.1% Tween 20, pH 7.6+/−0.1) for 30 minutes. The first primary antibody (position 1) was applied for 60 minutes followed by the secondary antibody application for 10 minutes and the application of the tertiary TSA-amplification reagent (PerkinElmer OPAL fluor) for 10 minutes. The primary and secondary antibodies were stripped with retrieval solution for 20 minutes before repeating the process with the second primary antibody (position 2) starting with a new application of 3% H2O2. The process was repeated until all 6 positions were completed; however, there was no stripping step after the 6th position. Slides were removed from the stainer and stained with Spectral DAPI (Perkin Elmer) for 5 minutes, rinsed for 5 minutes, and coverslipped with Prolong Gold Antifade reagent (Invitrogen/Life Technologies, Grand Island, N.Y.).
Slides were cured for 24 hours at room temperature, then representative images from each slide were acquired on PerkinElmer Vectra 3.0 Automated Imaging System. Images were spectrally unmixed using PerkinElmer inForm software and exported as multi-image TIFF's for analysis in HALO software (Indica Labs, Corrales, N. Mex.).
Cellular analysis of the images were then analyzed with HALO image analysis software (Indica Labs, Cooales, N. Mex.). After the cells were visualized based on nuclear recognition (DAPI stain), the software measured fluorescence intensity of the estimated cytoplasmic areas of each cell. A mean intensity threshold above background was used to determine positivity for each fluorochrome within the cytoplasm, thereby, defining cells as either positive or negative for each marker. The positive cell data was then used to define colocalized populations and to perform nearest neighbor spatial analysis.
Formalin-fixed paraffin-embedded melanoma samples were stained sequentially with a 6-component immunophenotyping antibody panel, including CD4, CD8, PD-1, PD-L1, macrophage cocktail (CD68+CD163), and FoxP3 (Tregs). DAPI was used as a nuclear counterstain. Antibodies were detected using HRP-catalyzed deposition of fluorescent tyramide substrates (Opal, Perkin-Elmer). Images were obtained using spectral imaging, autofluorescence subtraction and unmixing (Vectra 3.0, Perkin-Elmer), and analyzed using HALO™ image analysis software.
as §1, with “Tumor samples obtained from melanoma patients were formalin-fixed and” for “Formalin-fixed”, “(FFPE) according to known procedures. FFPE” for “(FFPE)”, “OPAL Polymer HRP Mouse plus Rabbit (PerkinElmer, Hopkington, Mass.) was used for all secondary applications.” left out

In the case of `NCCCCN(Cc1nc2ccccc2[nH]1)[C@H]1CCCc2cccnc21` [X4P-001], the “percentage of CD4 positive cells in the TME” value is reported as “increased”, the “percentage of CD8 positive cells in the TME” value is reported as “increased” and the “percentage of PD-1 positive cells in the TME” value is reported as “increased”. The “percentage of PDL-1 positive cells in the TME” value was “increased”, the “percentage of Treg (FoxP3+) cells” value was “not altered” and the “percentage of macrophages (CD68/CD163+)” value (printed 24.1% vs. 25.4%, not altered) was 25.4%.
